Data taken from patent US20110262025A1, “Cosmetic Compositions and Methods for Maintaining and Improving Barrier Function of the Stratum Corneum and to Reduce the Visible Signs of Aging in Skin” (priority 2010, published 2011).
One block for each compound: values may come before it. Where a SMILES comes first, the peptide text is derived from it. The star is where a group is joined. Cbz = O=C(OCc1ccccc1)*; CH2F = FC*

Assays:
[1] = tested on: genes associated with SC lipid pathways, Dermaquant model keratinocytes and fibroblasts; test: Transcriptional profiling (Affymetrix U133A plus 2) in aged-equivalent skin culture; assay type: cell-based, human; conditions: 0.1% Hexamidine vs vehicle (water), 4-48 hours
Experimental: The Experimental design is set forth in Table I. Cultures were treated and harvested at indicated time points. Total RNA extraction, labeling and hybridization to AffymetrixTM U133A plus 2 gene chips were conducted. Data were subjected to normalization and statistical analysis.

Aquaporin 3 = test: Multiplex mRNA analysis (Panomics QuantiGene Plex) in keratinocytes; assay type: cell-based; conditions: neonatal human keratinocytes, 24 hours, vs no treatment
Experimental: A multiplex mRNA analysis was conducted. RNA was isolated from neonatal human keratinocytes. Neonatal human keratinocytes (Cascade Biologics # C-001-5C) were grown to 40% confluence in 6-well tissue culture plates then treated with compounds for 24 hours (3 replicates per treatment). The treatments included several concentrations of Hexamidine, Niacinamide, and /or Pentanediol. Additionally, 0.00194% (100 μM) caffeine and no-treatment controls were performed.
Several targets were measured with Panomics QuantiGene Plex Assay kit, a multi-analyte quantitative bead-based assay. The fluorescence intensity values, measured by a Bio-Rad Bio-Plex 100 instrument, for those samples yielding sufficient RNA are shown for Aquaporin 3, CDD44 antigen, and Claudin 1. Also measured were Glyceraldehyde-3-phosphate dehydrogenase, Collagen 1α2, Filaggrin, Serine palmitoyltransferase, Interleukin 1,3-hydroxy-3methylglutaryl-coenzyme A reductase, and Interferon gamma.

Epiderm 201 cultures = test: TEWL (evaporimeter) in epidermal cultures; assay type: cell-based, human; conditions: 1% Niacinamide, 24 hour treatment
From the text: Biomarker endpoints and certain clinical skin instrumental measurements, such as those used for skin barrier determinations, can be detected in skin equivalent cultures. As noted above, the stratum corneum barrier consists of flattened, terminally differentiated corneocytes surrounded by specialized lamellar lipids, which act to retard loss of water from the skin's surface. Water loss can be measured functionally by use of an evaporimeter instrument wherein the endpoint measured is TEWL, and is expressed in units of grams of water per skin per hour. In one validity test the present inventors took epidermal cultures from a commercial supplier (Epiderm 201 cultures from MatTek Corp., Ashland Mass.) grew them in cultures for four days whereby the number of differentiated cell layers and stratum corneum thickness was increased during this period. […] These findings indicate that in vitro epidermal constructs form a functional water barrier that can be enhanced by compounds such as Niacinamide.

cornification = conditions: after barrier disruption; cited from earlier work

- gene encoding rate limiting enzyme in biosynthesis of cholesterol (HMGCR) [1]: up-regulation
- gene encoding rate limiting enzyme in biosynthesis of fatty acid (ACACA) [1]: up-regulation
- gene encoding rate limiting enzyme in biosynthesis of sphingolipid (SPTLC1/2) [1]: up-regulation
Compound: N=C(N)c1ccc(OCCCCCCOc2ccc(C(=N)N)cc2)cc1 [Hexamidine, 4,4′-(hexamethylenedioxy)dibenzenecarboximidamide]
- cellular cholesterol and fatty acid uptake mechanisms [1]: up-regulation
- expression of gene involved in LB formation (ABCAl2) [1]: Increased expression
- expression of gene involved in LB secretion (ABHD5) [1]: Increased expression
- mitochondrial cholesterol and fatty acid utilization pathways [1]: down-regulation
- transcriptional activators of genes involved in lipid metabolism [1]: up-regulation
- Aquaporin 3 expression (Aquaporin 3): upregulated

Compound: NC(=O)c1cccnc1 [Niacinamide]
- TEWL levels (Epiderm 201 cultures): reduced further

Compound: COC(=O)C[C@H](NC(=O)[C@H](C)NC(=O)[C@@H](NC(=O)OCc1ccccc1)C(C)C)C(=O)CF [Z-VAD-FMK] (Cbz-Val-Ala-Asp(OMe)-CH2F)
- cornification (cornification): delays

Compound: Pentanediol
- Aquaporin 3 expression (Aquaporin 3): upregulated
